Each molecule was assayed against human NaV 1.8 (Homo sapiens, UniProt Q9Y5Y9) (assay: E-VIPR assay for detecting and measuring NaV inhibition properties). Conditions: E-VIPR assay conducted in the presence of human serum; HEK cells expressing truncated human NaV 1.8; read-out: IC50.
human NaV 1.8, sequence (Q9Y5Y9 whole entry, looked up, the tested form may be a part): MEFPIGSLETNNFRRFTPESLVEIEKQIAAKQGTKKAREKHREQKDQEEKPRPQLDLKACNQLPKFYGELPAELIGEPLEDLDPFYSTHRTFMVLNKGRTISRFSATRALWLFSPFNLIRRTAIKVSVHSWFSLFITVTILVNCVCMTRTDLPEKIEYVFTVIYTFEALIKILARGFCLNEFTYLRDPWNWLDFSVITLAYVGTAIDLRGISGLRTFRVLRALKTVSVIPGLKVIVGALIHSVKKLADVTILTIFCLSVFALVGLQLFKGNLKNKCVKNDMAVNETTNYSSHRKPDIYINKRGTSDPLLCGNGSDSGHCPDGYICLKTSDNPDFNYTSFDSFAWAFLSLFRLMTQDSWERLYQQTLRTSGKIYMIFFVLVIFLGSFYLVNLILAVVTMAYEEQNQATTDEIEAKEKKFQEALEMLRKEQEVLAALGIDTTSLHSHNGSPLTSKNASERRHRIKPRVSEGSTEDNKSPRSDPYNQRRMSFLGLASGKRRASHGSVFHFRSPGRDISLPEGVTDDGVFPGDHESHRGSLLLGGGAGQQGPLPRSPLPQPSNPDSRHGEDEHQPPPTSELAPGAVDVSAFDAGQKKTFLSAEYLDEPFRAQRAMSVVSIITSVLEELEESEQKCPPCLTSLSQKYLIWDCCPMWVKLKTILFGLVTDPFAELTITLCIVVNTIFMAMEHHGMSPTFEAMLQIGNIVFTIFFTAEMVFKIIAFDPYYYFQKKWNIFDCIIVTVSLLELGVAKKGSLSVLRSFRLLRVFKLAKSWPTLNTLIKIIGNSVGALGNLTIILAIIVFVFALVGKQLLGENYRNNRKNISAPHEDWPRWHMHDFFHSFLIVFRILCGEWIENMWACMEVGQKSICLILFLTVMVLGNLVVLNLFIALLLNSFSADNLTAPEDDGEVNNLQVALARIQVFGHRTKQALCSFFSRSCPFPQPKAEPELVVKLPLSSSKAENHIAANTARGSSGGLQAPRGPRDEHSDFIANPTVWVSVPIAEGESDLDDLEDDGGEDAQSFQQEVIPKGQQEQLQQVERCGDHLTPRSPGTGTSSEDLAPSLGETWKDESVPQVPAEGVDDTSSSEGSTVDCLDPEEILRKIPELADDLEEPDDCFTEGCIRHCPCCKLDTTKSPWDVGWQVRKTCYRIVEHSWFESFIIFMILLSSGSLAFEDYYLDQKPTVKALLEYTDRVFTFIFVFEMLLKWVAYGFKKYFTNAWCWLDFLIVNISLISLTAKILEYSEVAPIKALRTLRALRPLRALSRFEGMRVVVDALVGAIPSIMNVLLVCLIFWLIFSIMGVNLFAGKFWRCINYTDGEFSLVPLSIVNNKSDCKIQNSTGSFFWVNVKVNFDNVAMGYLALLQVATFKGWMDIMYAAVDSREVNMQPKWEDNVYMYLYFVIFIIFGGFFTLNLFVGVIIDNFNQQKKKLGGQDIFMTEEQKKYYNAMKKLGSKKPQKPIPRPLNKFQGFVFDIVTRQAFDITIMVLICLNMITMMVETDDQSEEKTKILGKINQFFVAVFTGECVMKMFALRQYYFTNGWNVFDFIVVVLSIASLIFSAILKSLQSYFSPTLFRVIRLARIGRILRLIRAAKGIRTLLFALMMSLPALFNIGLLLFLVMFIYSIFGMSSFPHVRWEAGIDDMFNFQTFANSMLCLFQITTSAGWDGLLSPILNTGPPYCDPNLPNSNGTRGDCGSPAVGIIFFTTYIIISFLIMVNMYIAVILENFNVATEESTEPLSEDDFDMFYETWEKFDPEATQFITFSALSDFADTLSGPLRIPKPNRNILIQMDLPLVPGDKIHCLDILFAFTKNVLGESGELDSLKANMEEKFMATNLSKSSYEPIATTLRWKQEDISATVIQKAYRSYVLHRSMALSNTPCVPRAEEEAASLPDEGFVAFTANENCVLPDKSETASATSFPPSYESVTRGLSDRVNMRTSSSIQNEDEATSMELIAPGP
Assay type: cell-based
Method in brief: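 Membrane-potential (coumarin/oxonol) readout after 10 s of 10 Hz biphasic electrical stimulation on E-VIPR. Compounds: 11-point 3-fold dilutions, […], 0.625% DMSO, 30 min at room temperature, human serum optional. Cells: HEK expressing truncated human NaV1.8 co-transduced with KIR2.1.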
Molecule `COc1c(Cl)cc(Oc2ccc(OC(F)(F)F)c(F)c2OC)c(C(=O)Nc2ccnc(C(N)=O)c2)c1F` [Compound 326, 4-[[4-chloro-2-fluoro-6-[3-fluoro-2-methoxy-4-(trifluoromethoxy)phenoxy]-3-methoxy-benzoyl]amino]pyridine-2-carboxamide] has an IC50 of 1.3 nM. Work on `COc1c(Oc2cc3c(c(C)c2C(=O)Nc2ccnc(C(N)=O)c2)OC(F)(F)O3)ccc(OC(F)(F)F)c1F` [Compound 327, 4-[[2,2-difluoro-6-[3-fluoro-2-methoxy-4-(trifluoromethoxy)phenoxy]-4-methyl-1,3-benzodioxole-5-carbonyl]amino]pyridine-2-carboxamide] yielded an IC50 of 8.3 nM. Molecule `COc1c(Oc2ccc(C(F)(F)F)c(F)c2C(=O)Nc2cc(C(N)=O)ncn2)ccc(OC(F)(F)F)c1F` [Compound 329, 6-[[2-fluoro-6-[3-fluoro-2-methoxy-4-(trifluoromethoxy)phenoxy]-3-(trifluoromethyl)benzoyl]amino]pyrimidine-4-carboxamide] has an IC50 of 12.7 nM. `COc1c(Oc2ccc(C(F)(F)F)c(F)c2C(=O)Nc2cc(C(N)=O)ccn2)ccc(OC(F)(F)F)c1F` [Compound 330, 2-[[2-fluoro-6-[3-fluoro-2-methoxy-4-(trifluoromethoxy)phenoxy]-3-(trifluoromethyl)benzoyl]amino]pyridine-4-carboxamide] gave an IC50 of 29 nM. With `COc1c(Oc2ccc(C(F)(F)F)c(F)c2C(=O)Nc2cnc(C(N)=O)nc2)ccc(OC(F)(F)F)c1F` [Compound 331, 5-[[2-fluoro-6-[3-fluoro-2-methoxy-4-(trifluoromethoxy)phenoxy]-3-(trifluoromethyl)benzoyl]amino]pyrimidine-2-carboxamide] the IC50 was 4.6 nM. `COc1c(Oc2cnc(C(F)(F)F)c(F)c2C(=O)Nc2ccnc(C(N)=O)c2)ccc(OC(F)(F)F)c1F` [Compound 332, N-(2-carbamoyl-4-pyridyl)-3-fluoro-5-[3-fluoro-2-methoxy-4-(trifluoromethoxy)phenoxy]-2-(trifluoromethyl)pyridine-4-carboxamide] gave an IC50 of 2.7 nM. For `COc1c(Oc2cnc(C(F)(F)F)c(OC)c2C(=O)Nc2ccnc(C(N)=O)c2)ccc(OC(F)(F)F)c1F` [Compound 333, N-(2-carbamoyl-4-pyridyl)-5-[3-fluoro-2-methoxy-4-(trifluoromethoxy)phenoxy]-3-methoxy-2-(trifluoromethyl)pyridine-4-carboxamide], the IC50 was 4.9 nM. Molecule `COc1c(Oc2cnc(C(F)(F)F)c(OC)c2C(=O)Nc2cc(C(N)=O)ncc2C)ccc(OC(F)(F)F)c1F` [Compound 334, N-(2-carbamoyl-5-methyl-4-pyridyl)-5-[3-fluoro-2-methoxy-4-(trifluoromethoxy)phenoxy]-3-methoxy-2-(trifluoromethyl)pyridine-4-carboxamide] has an IC50 of 7 nM. `COc1c(Oc2cnc(C(F)(F)F)c(C)c2C(=O)Nc2cnc(C(N)=O)nc2)ccc(OC(F)(F)F)c1F` [Compound 335, 5-[[5-[3-fluoro-2-methoxy-4-(trifluoromethoxy)phenoxy]-3-methyl-2-(trifluoromethyl)pyridine-4-carbonyl]amino]pyrimidine-2-carboxamide] was tested, and the IC50 was 15.5 nM. Work on `COc1c(Oc2cnc(C(F)(F)F)c(C)c2C(=O)Nc2cc(C(N)=O)ncc2C)ccc(OC(F)(F)F)c1F` [Compound 336, N-(2-carbamoyl-5-methyl-4-pyridyl)-5-[3-fluoro-2-methoxy-4-(trifluoromethoxy)phenoxy]-3-methyl-2-(trifluoromethyl)pyridine-4-carboxamide] yielded an IC50 of 5.6 nM. For `COc1c(Oc2cnc(C(F)(F)F)c(C)c2C(=O)Nc2ccc(C(N)=O)nc2)ccc(OC(F)(F)F)c1F` [Compound 337, N-(6-carbamoyl-3-pyridyl)-5-[3-fluoro-2-methoxy-4-(trifluoromethoxy)phenoxy]-3-methyl-2-(trifluoromethyl)pyridine-4-carboxamide], the IC50 was 20.5 nM. Molecule `Cc1c(Oc2ccc(C(F)(F)F)c(F)c2C(=O)Nc2ccnc(C(N)=O)c2)ccc(F)c1Cl` [Compound 338, 4-[[6-(3-chloro-4-fluoro-2-methyl-phenoxy)-2-fluoro-3-(trifluoromethyl)benzoyl]amino]pyridine-2-carboxamide] has an IC50 of 47 nM. `NC(=O)c1cc(NC(=O)c2c(Oc3ccc(F)c(F)c3Cl)ccc(C(F)(F)F)c2F)ccn1` [Compound 339, 4-[[6-(2-chloro-3,4-difluoro-phenoxy)-2-fluoro-3-(trifluoromethyl)benzoyl]amino]pyridine-2-carboxamide] was tested, and the IC50 was 27 nM. `NC(=O)c1cc(NC(=O)c2c(Oc3c(F)ccc(F)c3C3CC3)ccc(C(F)(F)F)c2F)ccn1` [Compound 340, 4-[[6-(2-cyclopropyl-3,6-difluoro-phenoxy)-2-fluoro-3-(trifluoromethyl)benzoyl]amino]pyridine-2-carboxamide] gave an IC50 greater than 3000 nM. With `COc1cc(C(F)F)ccc1Oc1ccc(C(F)(F)F)c(F)c1C(=O)Nc1ccnc(C(N)=O)c1` [Compound 341, 4-[[6-[4-(difluoromethyl)-2-methoxy-phenoxy]-2-fluoro-3-(trifluoromethyl)benzoyl]amino]pyridine-2-carboxamide] the IC50 was 330 nM. Molecule `COc1c(Oc2ccc(C(F)(F)F)c(F)c2C(=O)Nc2ccnc(C(N)=O)c2)ccc(OC(F)F)c1F` [Compound 343, 4-[[6-[4-(difluoromethoxy)-3-fluoro-2-methoxy-phenoxy]-2-fluoro-3-(trifluoromethyl)benzoyl]amino]pyridine-2-carboxamide] has an IC50 of 4.8 nM. `CCc1c(Oc2ccc(C(F)(F)F)c(F)c2C(=O)Nc2ccnc(C(N)=O)c2)ccc(OC(F)(F)F)c1F` [Compound 344, 4-[[6-[2-ethyl-3-fluoro-4-(trifluoromethoxy)phenoxy]-2-fluoro-3-(trifluoromethyl)benzoyl]amino]pyridine-2-carboxamide] gave an IC50 of 4.7 nM. In the case of `NC(=O)c1cc(NC(=O)c2c(Oc3ccc(OC(F)(F)F)c(F)c3C3CC3)ccc(C(F)(F)F)c2F)ccn1` [Compound 345, 4-[[6-[2-cyclopropyl-3-fluoro-4-(trifluoromethoxy)phenoxy]-2-fluoro-3-(trifluoromethyl)benzoyl]amino]pyridine-2-carboxamide], the IC50 is reported as 2.5 nM. With `CCOc1cc(OC(F)(F)F)ccc1Oc1ccc(C(F)(F)F)c(F)c1C(=O)Nc1ccnc(C(N)=O)c1` [Compound 346, 4-[[6-[2-ethoxy-4-(trifluoromethoxy)phenoxy]-2-fluoro-3-(trifluoromethyl)benzoyl]amino]pyridine-2-carboxamide] the IC50 was 5.8 nM. With `CCOc1cc(OC(F)(F)F)ccc1Oc1cc(OC)c(C(F)(F)F)c(F)c1C(=O)Nc1ccnc(C(N)=O)c1` [Compound 347, 4-[[6-[2-ethoxy-4-(trifluoromethoxy)phenoxy]-2-fluoro-4-methoxy-3-(trifluoromethyl)benzoyl]amino]pyridine-2-carboxamide] the IC50 was 3.1 nM. With `COc1cc(Oc2ccc(F)c(F)c2C)c(C(=O)Nc2ccnc(C(N)=O)c2)c(F)c1C(F)(F)F` [Compound 348, 4-[[6-(3,4-difluoro-2-methyl-phenoxy)-2-fluoro-4-methoxy-3-(trifluoromethyl)benzoyl]amino]pyridine-2-carboxamide] the IC50 was 20 nM. `CC(C)(C)c1cc(Cc2ccccc2)c(C(=O)Nc2ccnc(C(N)=O)c2)cn1` [Compound 349, 4-benzyl-6-tert-butyl-N-(2-carbamoyl-4-pyridyl)pyridine-3-carboxamide] gave an IC50 greater than 3000 nM. With `CC(C)(C)c1cc(Cc2ccc(F)c(F)c2)c(C(=O)Nc2ccnc(C(N)=O)c2)cn1` [Compound 350, 6-tert-butyl-N-(2-carbamoyl-4-pyridyl)-4-[(3,4-difluorophenyl)methyl]pyridine-3-carboxamide] the IC50 was greater than 3000 nM. For `COc1cc(F)ccc1Oc1cc(C(F)(F)F)nc(C)c1C(=O)Nc1ccnc(C(N)=O)c1` [Compound 351, N-(2-carbamoyl-4-pyridyl)-4-(4-fluoro-2-methoxy-phenoxy)-2-methyl-6-(trifluoromethyl)pyridine-3-carboxamide], the IC50 was 410 nM. `COc1cc(OC(F)(F)F)ccc1Oc1cc(OC)c(C(F)(F)F)c(F)c1C(=O)Nc1ccnc(C(N)=O)c1` [Compound 352, 4-[[2-fluoro-4-methoxy-6-[2-methoxy-4-(trifluoromethoxy)phenoxy]-3-(trifluoromethyl)benzoyl]amino]pyridine-2-carboxamide] gave an IC50 of 1.8 nM. For `COc1cc(OC(F)(F)F)ccc1Oc1cc(OC)c(C(F)(F)F)c(F)c1C(=O)Nc1ccc(C(N)=O)nc1` [Compound 353, 5-[[2-fluoro-4-methoxy-6-[2-methoxy-4-(trifluoromethoxy)phenoxy]-3-(trifluoromethyl)benzoyl]amino]pyridine-2-carboxamide], the IC50 was 17.4 nM. Molecule `COc1cc(OC(F)(F)F)ccc1Oc1ccc(C(F)(F)F)c(F)c1C(=O)Nc1cc(C(N)=O)[n+]([O-])cc1C` [Compound 354, 4-[[2-fluoro-6-[2-methoxy-4-(trifluoromethoxy)phenoxy]-3-(trifluoromethyl)benzoyl]amino]-5-methyl-1-oxido-pyridin-1-ium-2-carboxamide] has an IC50 of 30 nM. For `COc1cc(OC(F)(F)F)ccc1Oc1ccc(C(F)(F)F)c(F)c1C(=O)Nc1cc(C(N)=O)ncn1` [Compound 355, 6-[[2-fluoro-6-[2-methoxy-4-(trifluoromethoxy)phenoxy]-3-(trifluoromethyl)benzoyl]amino]pyrimidine-4-carboxamide], the IC50 was 150 nM. Molecule `COc1cc(OC(F)(F)F)ccc1Oc1ccc(C(F)(F)F)c(F)c1C(=O)Nc1cnnc(C(N)=O)c1` [Compound 356, 5-[[2-fluoro-6-[2-methoxy-4-(trifluoromethoxy)phenoxy]-3-(trifluoromethyl)benzoyl]amino]pyridazine-3-carboxamide] has an IC50 of 3.3 nM. `COc1cc(OC(F)(F)F)ccc1Oc1ccc(C(F)(F)F)c(F)c1C(=O)Nc1cnc(C(N)=O)nc1` [Compound 357, 5-[[2-fluoro-6-[2-methoxy-4-(trifluoromethoxy)phenoxy]-3-(trifluoromethyl)benzoyl]amino]pyrimidine-2-carboxamide] gave an IC50 of 15 nM.

Source: patent US12441703B2, “Carboxamides as modulators of sodium channels” (VERTEX PHARMACEUTICALS INCORPORATED, priority 2019, dated 2025)
